Experiments:
Sprague-Dawley rats = test: Open field odor avoidance; assay type: in vivo, rat; conditions: ten minute exposure, 12 animals ±SEM; 1 ml urine or 5 μl amine
Description: We next examined behavioral responses of rodents to 2-phenylethylamine. […] Behaviors of rats in a square-shaped arena were recorded and analyzed following placement of test stimuli in a pseudorandom corner (FIG. 5A). […] Thus, 2-phenylethylamine, in the absence of other predator odor cues, was sufficient to evoke rat avoidance behavior.
Open field behavioral analysis. Rat behavioral responses to odors in the open field were measured as described previously (Fendt M (2006) Exposure to urine of canids and felids, but not of herbivores, induces defensive behavior in laboratory rats. Journal of chemical ecology 32(12):2617-2627) with the following modifications. Adult Sprague-Dawley rats (240-340 g; Janvier, Le Genest St. Isle, France) were placed in the center of a 45 cm×45 cm Plexiglass arena (TSE Systems, Bad Homburg, Germany) equipped with infrared sensors (distance 14 mm, illumination 80-120 lux). The arena contained glass dishes (36 mm) in each corner, with one dish containing test stimuli. Prior to testing, animals were habituated to the arena by introducing them for three consecutive days. […] Location of the rats was automatically recorded using the infrared detectors and analyzed (TSE Systems software). Statistical significance was measured using Wilcoxon Signed Test (**p<0.01; comparison with chance level (25%)). […]

mTAAR7f-SS = target: T1, mTAAR7f-SS (Mus musculus, UniProt Q5QD08, C133S/Y132S); test: Reporter gene assay on mutant receptor mTAAR7f-SS; assay type: cell-based; conditions: mutant vs mTAAR7f
T1 construct: Full Taar coding regions were cloned into pcDNA3.1-(Invitrogen); Rho tag (first 20 aa of bovine rhodopsin + linker); expressed in transfected cells; host or cells: HEK293
T1 sequence (Q5QD08 1-358 Y132S/C133S): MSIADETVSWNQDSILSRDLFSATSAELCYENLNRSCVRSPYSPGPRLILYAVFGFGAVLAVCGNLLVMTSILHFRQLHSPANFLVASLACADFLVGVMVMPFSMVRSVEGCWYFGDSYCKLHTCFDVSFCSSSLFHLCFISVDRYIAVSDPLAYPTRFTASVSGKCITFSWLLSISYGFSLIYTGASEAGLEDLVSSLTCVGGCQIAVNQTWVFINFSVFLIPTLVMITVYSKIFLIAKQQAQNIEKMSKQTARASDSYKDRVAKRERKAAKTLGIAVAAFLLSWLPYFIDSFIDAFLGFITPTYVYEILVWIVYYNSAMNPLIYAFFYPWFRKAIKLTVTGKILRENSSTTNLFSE
Description: To test this, we created mutant receptors in which sequences of mTAAR7e were swapped into mTAAR7f and vice versa. Position 132^3.37 is a tyrosine in mTAAR7f and the other three receptors that detect 10, but a serine in mTAAR7e and a cysteine in rTAAR7h, the two receptors that detect 6. Furthermore, position 133^3.38 is a cysteine in mTAAR7f but a serine in mTAAR7e and rTAAR7h. We altered positions 132^3.37 and 133^3.38 by mutation of mTAAR7e (‘mTAAR7e-YC’) and mTAAR7f (‘mTAAR7f-SS’) and examined odor responses of these mutants using the cellular reporter gene assay (FIG. 9).
TAAR functional assays. Full Taar coding regions were cloned into pcDNA3.1-(Invitrogen) with or without a 5′ DNA extension of 69 bp encoding the first 20 amino acids of bovine rhodopsin followed by a cloning linker ([…]). Point mutations were introduced in mTAAR7e and mTAAR7f by overlap extension PCR. Functional assays were performed as described (40, 42). Fluorescence was measured on an EnVision plate reader (Perkin Elmer) and SEAP activity graphed as relative fluorescence of a phosphatase substrate.

Compound	percentage of time rats are located in the odor quadrant (Sprague-Dawley rats) [%]	reduced affinity of mTAAR7f-SS (mTAAR7f-SS) [fold]
NCCc1ccccc1 [2-phenylethylamine]	8.0±2.0	–
CN(C)C1CCCCC1 [ligand 10, N,N-dimethylcyclohexylamine]	–	~100
